From patent US9889115B2, “Fitness assay and associated methods” (priority 1998, dated 2018)

What was measured:
HIV-1LAI = experiment: PHA-PBMC assay, p24 Gag protein production; type: cell-based; details: Human immunodeficiency virus 1; HIV-1LAI, SI; PHA-PBMC, p24 (Table 3)
HIV-1BAL = experiment: PHA-PBMC assay, p24 Gag protein production; type: cell-based; details: Human immunodeficiency virus 1; HIV-1BAL, NSI; PHA-PBMC, p24 (Table 3)
HIV-1ERS104pre = experiment: PHA-PBMC assay, p24 Gag protein production; type: cell-based; details: Human immunodeficiency virus 1; HIV-1ERS104pre, SI; PHA-PBMC, p24
Experimental: (§1) The patient profiles are shown below in Table 2.
(§2) To determine protease inhibitory activity against multidrug resistant HIV, the IC50's were measured against a panel of clinically isolated mutant HIV isolates.
(§3) All drug sensitivities were performed in triplicate. In order to determine whether the HIV isolates were syncitium inducing (SI) or non-syncitium inducing (NSI), an aliquot of viral stock supernatant, containing 100 TCID50, was cultured with 1×10^5 MT-2 cells in a 12-well plate. Cultures were maintained for four weeks and were examined for syncytium formation twice a week.

[1] = system: multidrug-resistant HIV-1 clinical isolate, patient 1; experiment: PHA-PBMC assay, p24 Gag protein production; type: cell-based; details: Human immunodeficiency virus 1; Patient/Isolate code 1; PHA-PBMC, p24
Experimental: as §1, §2, §3

[2] = system: multidrug-resistant HIV-1 clinical isolate, patient 2; experiment: PHA-PBMC assay, p24 Gag protein production; type: cell-based; details: Human immunodeficiency virus 1; Patient/Isolate code 2; PHA-PBMC, p24
Experimental: as §1, §2, §3

[3] = system: multidrug-resistant HIV-1 clinical isolate, patient 3; experiment: PHA-PBMC assay, p24 Gag protein production; type: cell-based; details: Human immunodeficiency virus 1; Patient/Isolate code 3; PHA-PBMC, p24
Experimental: as §1, §2, §3

[4] = system: multidrug-resistant HIV-1 clinical isolate, patient 4; experiment: PHA-PBMC assay, p24 Gag protein production; type: cell-based; details: Human immunodeficiency virus 1; Patient/Isolate code 4; PHA-PBMC, p24
Experimental: as §1, §2, §3

[5] = system: multidrug-resistant HIV-1 clinical isolate, patient 5; experiment: PHA-PBMC assay, p24 Gag protein production; type: cell-based; details: Human immunodeficiency virus 1; Patient/Isolate code 5; PHA-PBMC, p24
Experimental: as §1, §2, §3

[6] = system: multidrug-resistant HIV-1 clinical isolate, patient 6; experiment: PHA-PBMC assay, p24 Gag protein production; type: cell-based; details: Human immunodeficiency virus 1; Patient/Isolate code 6; PHA-PBMC, p24
Experimental: as §1, §2, §3

[7] = system: multidrug-resistant HIV-1 clinical isolate, patient 7; experiment: PHA-PBMC assay, p24 Gag protein production; type: cell-based; details: Human immunodeficiency virus 1; Patient/Isolate code 7; PHA-PBMC, p24
Experimental: as §1, §2, §3

[8] = system: multidrug-resistant HIV-1 clinical isolate, patient 8; experiment: PHA-PBMC assay, p24 Gag protein production; type: cell-based; details: Human immunodeficiency virus 1; Patient/Isolate code 8; PHA-PBMC, p24
Experimental: as §1, §2, §3

[9] = system: multidrug-resistant HIV-1 clinical isolate, patient 10; experiment: microbe, parasite or virus in culture; type: cell-based; details: Human immunodeficiency virus 1; Patient Isolate 10
Experimental: (§4) The mutant multidrug-resistant HIV-1 strains corresponding to each patient, numbered 9-35, were genetically analyzed in terms of the nucleic acid sequences of the protease (PR) and a portion of the reverse transcriptase (RT) genes from which mutations in these enzymes were determined. The mutations in the protease and reverse transcriptase of the multidrug-resistant viruses isolated from each patient are shown below in Table 9b.

[10] = system: multidrug-resistant HIV-1 clinical isolate, patient 11; experiment: microbe, parasite or virus in culture; type: cell-based; details: Human immunodeficiency virus 1; Patient Isolate 11
Experimental: as §4

[11] = system: multidrug-resistant HIV-1 clinical isolate, patient 12; experiment: microbe, parasite or virus in culture; type: cell-based; details: Human immunodeficiency virus 1; Patient Isolate 12
Experimental: as §4

[12] = system: multidrug-resistant HIV-1 clinical isolate, patient 13; experiment: microbe, parasite or virus in culture; type: cell-based; details: Human immunodeficiency virus 1; Patient Isolate 13
Experimental: as §4

[13] = system: multidrug-resistant HIV-1 clinical isolate, patient 14; experiment: microbe, parasite or virus in culture; type: cell-based; details: Human immunodeficiency virus 1; Patient Isolate 14
Experimental: as §4

[14] = system: multidrug-resistant HIV-1 clinical isolate, patient 15; experiment: microbe, parasite or virus in culture; type: cell-based; details: Human immunodeficiency virus 1; Patient Isolate 15
Experimental: as §4

[15] = system: multidrug-resistant HIV-1 clinical isolate, patient 16; experiment: microbe, parasite or virus in culture; type: cell-based; details: Human immunodeficiency virus 1; Patient Isolate 16
Experimental: as §4

[16] = system: multidrug-resistant HIV-1 clinical isolate, patient 17; experiment: microbe, parasite or virus in culture; type: cell-based; details: Human immunodeficiency virus 1; Patient Isolate 17
Experimental: as §4

[17] = system: multidrug-resistant HIV-1 clinical isolate, patient 18; experiment: microbe, parasite or virus in culture; type: cell-based; details: Human immunodeficiency virus 1; Patient Isolate 18
Experimental: as §4

[18] = system: multidrug-resistant HIV-1 clinical isolate, patient 19; experiment: microbe, parasite or virus in culture; type: cell-based; details: Human immunodeficiency virus 1; Patient Isolate 19
Experimental: as §4

[19] = system: multidrug-resistant HIV-1 clinical isolate, patient 20; experiment: microbe, parasite or virus in culture; type: cell-based; details: Human immunodeficiency virus 1; Patient Isolate 20
Experimental: as §4

[20] = system: multidrug-resistant HIV-1 clinical isolate, patient 21; experiment: microbe, parasite or virus in culture; type: cell-based; details: Human immunodeficiency virus 1; Patient Isolate 21
Experimental: as §4

[21] = system: multidrug-resistant HIV-1 clinical isolate, patient 23; experiment: microbe, parasite or virus in culture; type: cell-based; details: Human immunodeficiency virus 1; Patient Isolate 23
Experimental: as §4

[22] = system: multidrug-resistant HIV-1 clinical isolate, patient 27; experiment: microbe, parasite or virus in culture; type: cell-based; details: Human immunodeficiency virus 1; Patient Isolate 27
Experimental: as §4

[23] = system: multidrug-resistant HIV-1 clinical isolate, patient 28; experiment: microbe, parasite or virus in culture; type: cell-based; details: Human immunodeficiency virus 1; Patient Isolate 28
Experimental: as §4

[24] = system: multidrug-resistant HIV-1 clinical isolate, patient 29; experiment: microbe, parasite or virus in culture; type: cell-based; details: Human immunodeficiency virus 1; Patient Isolate 29
Experimental: as §4

[25] = system: multidrug-resistant HIV-1 clinical isolate, patient 30; experiment: microbe, parasite or virus in culture; type: cell-based; details: Human immunodeficiency virus 1; Patient Isolate 30
Experimental: as §4

[26] = system: multidrug-resistant HIV-1 clinical isolate, patient 31; experiment: microbe, parasite or virus in culture; type: cell-based; details: Human immunodeficiency virus 1; Patient Isolate 31
Experimental: as §4

[27] = system: multidrug-resistant HIV-1 clinical isolate, patient 32; experiment: microbe, parasite or virus in culture; type: cell-based; details: Human immunodeficiency virus 1; Patient Isolate 32
Experimental: as §4

[28] = system: multidrug-resistant HIV-1 clinical isolate, patient 33; experiment: microbe, parasite or virus in culture; type: cell-based; details: Human immunodeficiency virus 1; Patient Isolate 33
Experimental: as §4

[29] = system: multidrug-resistant HIV-1 clinical isolate, patient 35; experiment: microbe, parasite or virus in culture; type: cell-based; details: Human immunodeficiency virus 1; Patient Isolate 35
Experimental: as §4

[30] = system: multidrug-resistant HIV-1 clinical isolate, patient 9; experiment: microbe, parasite or virus in culture; type: cell-based; details: Human immunodeficiency virus 1; Patient Isolate 9
Experimental: as §4

[31] = system: multidrug-resistant HIV-1 clinical isolate, patient 22; experiment: IC50 against multidrug-resistant clinical isolates (Table 9a); type: cell-based; details: Human immunodeficiency virus 1
Experimental: as §4

[32] = system: multidrug-resistant HIV-1 clinical isolate, patient 34; experiment: as above; type: cell-based; details: Human immunodeficiency virus 1
Experimental: as §4

wild-type HIV-1 (WT) = experiment: IC50 against wild-type HIV-1 (Table 9a); type: cell-based; details: Human immunodeficiency virus 1; (WT)
[33] = system: multidrug-resistant strains of HIV-1; experiment: PHA-PBMC p24 assay, panel of eight multidrug-resistant clinical isolates; type: cell-based; details: eight multidrug-resistant clinical isolates of Table 3
Experimental: as §1, §2, §3

wild-type HIV protease = wild-type HIV protease (Human immunodeficiency virus type 1 group M subtype B, UniProt P04585); experiment: biochemical
wild-type HIV = experiment: wild-type antiretroviral activity (Table 4); details: Human immunodeficiency virus 1, read-out: ID50

Compound: CC(C)c1nc(CN(C)C(=O)N[C@H](C(=O)N[C@@H](Cc2ccccc2)C[C@H](O)[C@H](Cc2ccccc2)NC(=O)OCc2cncs2)C(C)C)cs1 [RTV, Ritonavir]
- IC50 (HIV-1LAI): 4.7 nM
- IC50 (HIV-1BAL): 18 nM
- IC50 (HIV-1ERS104pre): 55 nM
- IC50 [1]: > 1000 nM
- IC50 [2]: > 1000 nM
- IC50 [3]: > 1000 nM
- IC50 [4]: > 1000 nM
- IC50 [5]: > 1000 nM
- IC50 [6]: > 1000 nM
- IC50 [7]: > 1000 nM
- IC50 [8]: > 1000 nM
- IC50 [9]: 2030 nM
- IC50 [10]: 10 nM
- IC50 [11]: 2470 nM
- IC50 [12]: 1640 nM
- IC50 [13]: 40 nM
- IC50 [14]: 1140 nM
- IC50 [15]: 1340 nM
- IC50 [16]: 870 nM
- IC50 [17]: 3.02 µM
- IC50 [18]: 2940 nM
- IC50 [19]: 1900 nM
- IC50 [20]: 2180 nM
- IC50 [21]: 1820 nM
- IC50 [22]: 2970 nM
- IC50 [23]: 2660 nM
- IC50 [24]: 360 nM
- IC50 [25]: 1030 nM
- IC50 [26]: 850 nM
- IC50 [27]: 370 nM
- IC50 [28]: 180 nM
- IC50 [29]: 2600 nM
- IC50 [30]: 530 nM
- IC50 [31]: 560 nM
- IC50 [32]: 3.38 µM
- IC50 (wild-type HIV-1 (WT)): 19 nM
- potency against the multidrug-resistant strains (in words) [33]: virtually inactive

Compound: Cc1ccc(S(=O)(=O)N(CC(C)C)CC(O)C(Cc2ccccc2)NC(=O)OC2COC3OCCC23)cc1 (centres unmarked)
- Ki (wild-type HIV protease): 1.2 nM
- IC50 (wild-type HIV): 3.5 nM

Compound: COc1ccc(S(=O)(=O)N(CC(C)C)CC(O)C(Cc2ccccc2)NC(=O)OC2COC3OCCCC23)cc1 (centres unmarked)
- Ki (wild-type HIV protease): 2.2 nM
- IC50 (wild-type HIV): 4.5 nM
